In patent publication US8212024B2, “Crystalline sodium salt of cephalosporin antibiotic” (Orchid Chemicals & Pharmaceuticals Ltd., priority 2005, dated 2012):

Legend:
Assay type in all cases: physicochemical
[1] = Comparison of physical characteristics: tapped bulk density
From the text: The following Table provides a comparison of physical characteristics of amorphous and crystalline Ceftiofur Sodium. From this table it is evident that the crystalline Ceftiofur Sodium has better physical characteristics than amorphous material. [table]

[2] = Hygroscopicity observation
From the text: Apart from the conventional formulation that are described the Ceftiofur sodium formulation may also contain chelating agent like ethylene diamine tetraacetic acid (EDTA) or a buffer like sodium citrate along with or with out conventional excipient. The pharmaceutical composition may also contain amorphous Ceftiofur sodium along with crystalline Ceftiofur sodium.

[3] = Stability at 40 ± 2° C. & 75 ± 5% RH; details: for Assay: in % (unit assumed)
From the text: (§1) The following Tables (Table 2 & 3) provide stability data of crystalline Ceftiofur Sodium prepared according to this invention. From this it table it is evident that the crystalline Ceftiofur Sodium prepared according this invention is a very stable and a highly pure material, which is clearly indicated by total RS (Related substances) analysis & the stability data. [table]

[4] = Stability at 25 ± 2° C. & 60 ± 5% RH; details: for Assay: in % (unit assumed)
From the text: as §1

CO/N=C(\C(=O)NC1C(=O)N2C(C(=O)[O-])=C(CSC(=O)c3ccco3)CSC12)c1csc(N)n1.[Na+] (centres unmarked) [Amorphous Ceftiofur sodium, Ceftiofur sodium, reference compound]
Tapped Bulk density [1]: 0.5 g/mL | Hygroscopic nature [2]: highly hygroscopic

CO/N=C(\C(=O)NC1C(=O)N2C(C(=O)[O-])=C(CSC(=O)c3ccco3)CSC12)c1csc(N)n1.[Na+] (centres unmarked) [Crystalline Ceftiofur sodium, Ceftiofur sodium]
Total RS (Related substances) ([3]; 2 month): 0.93% | Assay ([3]; 2 month): 100.61 | Total RS (Related substances) ([3]; 15 days): 0.78% | Assay ([3]; 15 days): 100.64 | Total RS (Related substances) ([3]; Initial): 0.61% | Assay ([3]; Initial): 101.25 | Total RS (Related substances) ([4]; 1 month): 0.75% | Assay ([4]; 1 month): 101.18 | Total RS (Related substances) ([4]; 2 month): 0.78% | Assay ([4]; 2 month): 100.31 | Total RS (Related substances) ([4]; Initial): 0.61% | Assay ([4]; Initial): 101.25 | Tapped Bulk density [1]: 0.8 g/mL | Hygroscopic nature [2]: non-hygroscopic

CO/N=C(\C(=O)N[C@@H]1C(=O)N2C(C(=O)[O-])=C(CSC(=O)c3ccco3)CS[C@H]12)c1csc(N)n1.[Na+] [Ceftiofur sodium]
Hygroscopic nature [2]: non-hygroscopic
